Measurements taken from patent publication US10578608B1, “Tools to detect, track and target cancer cells in vivo” (The Regents of the University of California, priority 2015, dated 2020).
Entries after “also recorded” stand apart in the source; their conditions may differ. Counter-ions that a name gives are not always drawn. k = constrained ethyl (cEt); d = 2'-deoxy (DNA)

What was measured:
MSI1 RNA = experiment: MSI1 expression after ASO free uptake (q-RT-PCR); type: cell-based, human; settings: 24 hours, MIA PaCa-2 cells
Procedure: (FIG. 8 F to FIG. 8H) Real time PCR analysis of Msi expression following ASO free uptake in MIA PaCa-2 cells. MIA PaCa-2 cells were treated with 2 Gen 2.5 cEt ASOx target MSI1 or Control Gen 2.5 ASO for 24 hours, RNA was isolated and target knockdown (MSI1 RNA level) was determined by q-RT-PCR. IC50 values for each ASO were calculated using GraphPad Prism software; each treatment condition was performed in triplicate. (FIG. 8I) Colony formation assay in MSI1 ASO-treated MIA PaCa-2 cells after weekly delivery of control or MSI1 ASOs; colonies were counted after 4 weeks; n=3 for each ASO tested. (FIG. 8J) In vivo tracking of tumor volume in MSI1 ASO treated MIA PaCa-2 tumors with intratumoral delivery of control or MSI1 ASOs every day for 5 days followed by 2 days off; n=5 for each ASO tested. Nonlinear regression was used to determine the difference in slope between Control ASO and MSI1-ASO-1 (p<0.001). (FIG. 8K) In vivo tracking of tumor volume of primary KP^f/fC tumors with intratumoral delivery of control ASO or MSI1 ASOs following tumor establishment (n=4). […]
To identify human Msi ASO inhibitors, rapid throughput screens were performed to identify effective ASOs as previously described (Wang, J. C. Y. & Dick, J. E. Cancer stem cells: lessons from leukemia. Trends in Cell Biology 15, 494-501 (2005); Reya, T., Morrison, S. J., Clarke, M. F. & Weissman, I. L. Stem cells, cancer, and cancer stem cells. Nature 414(6859):105-11 (2001); Carroll, J. B. et al. Potent and Selective Antisense Oligonucleotides Targeting Single-Nucleotide Polymorphisms in the Huntington Disease Gene/Allele-Specific Silencing of Mutant Huntingtin. Molecular Therapy 19, 2178-2185 (2009); Samuel, V. T. et al. Targeting foxo1 in mice using antisense oligonucleotide improves hepatic and peripheral insulin action. […] Gene expression was assessed with taqman probes for MSI1 and MSI2. […] Colonies were counted 21 days after the first ASO treatment. […] Tumor measurements were recorded every 3 days. […]

pancreatic cancer = settings: cited from earlier work
[1] = tested on: Msi2 Reporter KPf/fC cells; experiment: In vitro gemcitabine treatment with live imaging of Msi2 reporter KPf/fC cells; type: cell-based, mouse; settings: 10 μM gemcitabine, imaged up to 48 h
[2] = tested on: REM2-KPf/fC pancreatic tumors; experiment: In vivo drug therapy of tumor-bearing REM2-KPf/fC mice, reporter frequency by flow cytometry; parameters: species or system mouse; settings: increasing doses (200 or 500 mg/kg IP)
Description: The development of the reporter gave us a unique opportunity to determine whether it could be used as a new image based tool to identify therapy resistant cells in pancreatic cancer. The chemotherapeutic agent gemcitabine remains the standard of care for adjuvant treatment of pancreatic cancer and is the most commonly used single agent in the treatment of advanced disease. Despite this, clinical response rates to gemcitabine are below 10% and it fails to prevent relapse after surgery in 85% of patients. Gemcitabine was delivered to tumor-bearing REM2-KPf/fC mice in vivo at increasing doses to determine the composition of residual disease. […] Importantly, these experiments identify Msi reporter positive cells as the predominant gemcitabine resistant population.
9-10 week old REM2-KP^f/fC mice were treated with Gemcitabine alone or in combination with Crizotinib or iBet762 for 6 days. On day 6, tumors were removed, dissociated (as described above), counted for total cellular content, stained with anti-mouse EpCAM antibody and analyzed for reporter expression by flow cytometry. Gemcitabine (Sigma, G6423) was resuspended in H2O at 20 mg/ml and delivered at 200 mg/kg or 500 mg/kg by IP injection twice over 6 days (on day 0 and 3). […]

blast crisis CML cells = settings: versus 2-fold difference without treatment
Description: To account for any differences in cell survival between GFP+ and GFP− cells that is solely due to differences in differentiation status, we specifically analyzed cell survival of GFP+ and GFP− leukemia cells within the lineage-negative (Lin−) fraction.
To account for any differences in cell survival between GFP^+ and GFP^− cells that is solely due to differences in differentiation status, we specifically analyzed cell survival of GFP^+ and GFP^− leukemia cells within the lineage-negative (Lin^−) fraction.
Cells were then washed and stained with antibodies against lineage markers. Apoptosis assays were performed by staining cells with Annexin-V (BD Pharmingen).

blast crisis CML = experiment: In vivo identification of therapy-resistant residual leukemia cells after Gleevec; parameters: species or system mouse; settings: Gleevec 150 mg/kg daily oral gavage, NSG mice
Procedure: (FIG. 41A) The strategy used to track residual leukemia cells in vivo. KLS cells isolated from Msi2^GFP/Actb-DsRed mice were co-infected with BCR-ABL1 and NUP98-HOXA9 and subsequently transplanted into NOD-Scid IL2Rg^null (NSG) recipient mice. Fourteen days post-transplantation (D14), recipient mice were treated daily with Gleevec or vehicle alone (control) for […] and analyzed by flow cytometry on D20. (FIG. 41B) Average frequency of Msi2+ (% GFP^+) leukemia cells determined at various anatomic sites from mice with blast crisis CML (n=3 mice). (FIG. 41C) Extent of residual disease at different anatomic sites following Gleevec treatment.
To test this, REM2 mice were crossed with mice expressing dsRed under the control of a ubiquitous promoter (Vintersten et al., 2004). […]
To determine sites that harbor therapy-resistant cells, bone marrow-derived KLS cells were isolated and sorted from Msi2^GFP/Acb-DsRed mice and cultured in X-Vivo 15 media (Lonza) supplemented with 50 μM 2-mercaptoethanol, 10% (vol/vol) fetal bovine serum, SCF (100 ng/ml, R&D Systems) and TPO (20 ng/ml, R&D Systems). […] Fifteen days post-transplantation (D15), recipient mice were treated daily with Gleevec (150 mg/kg) or H2O (control) via oral gavage for five consecutive days (D15 to D19) and analyzed by flow cytometry on D20.

5′-GGCTACTACGCCGTCA-3′ (sugars from the 5' end k3 d10 k3, backbone and methylation of C not given here) [Control ASOs]
MSI1 expression in cell lines after ASO treatment (MSI1 RNA): did not suppress MSI1 expression

5′-TTACATATGATACAGG-3′ (sugars from the 5' end k3 d10 k3, backbone and methylation of C not given here) [ASO-2]
MSI1 expression in cell lines after ASO treatment (MSI1 RNA): inhibited MSI1 expression

Nc1ccn([C@@H]2O[C@H](CO)[C@@H](O)C2(F)F)c(=O)n1 [gemcitabine, Gemcitabine]
Patients in whom it fails to prevent relapse after surgery (pancreatic cancer; adjuvant): 85%
Clinical response rates (pancreatic cancer; pancreatic cancer patients): below 10%
Msi2 expression in Msi2 reporter− KPf/fC cells after in vitro treatment [1]: do not turn on Msi2 expression
Effect on GFP+ (Msi2 reporter+) tumor cells [2]: resistant and remained viable; also recorded: preferential survival
Effect on GFP− (Msi2 reporter−) tumor cells [2]: sensitive to gemcitabine and were preferentially eliminated

Cc1ccc(NC(=O)c2ccc(CN3CCN(C)CC3)cc2)cc1Nc1nccc(-c2cccnc2)n1 [imatinib, imatinib mesylate]
Increase in difference in cell survival between Lin− GFP+ and Lin− GFP− cells following imatinib treatment (blast crisis CML cells): 3 fold
GFP+ leukemic cell population remaining following imatinib treatment (blast crisis CML; calvarium, femur, tibia, sternum or pelvis): ~37%
GFP+ leukemic cell population remaining following imatinib treatment (blast crisis CML; spleen): ~60%
